Reference: PubChem BioAssay (NCI)
Several values for one entry are separate records, joined by “and”; a condition that tells them apart may be missing. Equal values may be shown once.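 All cell lines were grown in 96-well plates and treated with compound for 48 hours. GI50 is the concentration that inhibits growth by half. Definition used: TGI = concentration required for complete inhibition of growth.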

Tests used:
Assay in all cases: NCI anticancer screen, dose series, 48 h
U251 CNS = test system: U251 CNS
UACC-62 melanoma = test system: UACC-62 melanoma
OVCAR-8 ovarian = test system: OVCAR-8 ovarian
NCI-H522 lung = test system: NCI-H522 lung
UACC-257 melanoma = test system: UACC-257 melanoma
MCF7 breast = test system: MCF7 breast
KM12 colon = test system: KM12 colon
SK-OV-3 ovarian = test system: SK-OV-3 ovarian
SN12C renal = test system: SN12C renal
HCC-2998 colon = test system: HCC-2998 colon
SK-MEL-2 melanoma = test system: SK-MEL-2 melanoma
SK-MEL-5 melanoma = test system: SK-MEL-5 melanoma
NCI-H460 lung = test system: NCI-H460 lung
A549 NSCLC = test system: A549 NSCLC
786-0 renal = test system: 786-0 renal
OVCAR-5 ovarian = test system: OVCAR-5 ovarian
ACHN renal = test system: ACHN renal
HL-60(TB) leukemia = test system: HL-60(TB) leukemia
SR leukemia = test system: SR leukemia
NCI-H23 lung = test system: NCI-H23 lung
DU-145 prostate = test system: DU-145 prostate
EKVX NSCLC = test system: EKVX NSCLC
HCT-116 colon = test system: HCT-116 colon
TK-10 renal = test system: TK-10 renal
SNB-19 CNS = test system: SNB-19 CNS
K-562 leukemia = test system: K-562 leukemia
SF-295 CNS = test system: SF-295 CNS
M14 melanoma = test system: M14 melanoma
BT-549 breast = test system: BT-549 breast
NCI/ADR-RES ovarian = test system: NCI/ADR-RES ovarian
CCRF-CEM leukemia = test system: CCRF-CEM leukemia
SK-MEL-28 melanoma = test system: SK-MEL-28 melanoma
CAKI-1 renal = test system: CAKI-1 renal
MOLT-4 leukemia = test system: MOLT-4 leukemia
MALME-3M melanoma = test system: MALME-3M melanoma
OVCAR-3 ovarian = test system: OVCAR-3 ovarian
PC-3 prostate = test system: PC-3 prostate
MDA-MB-231 breast = test system: MDA-MB-231 breast
UO-31 renal = test system: UO-31 renal
IGROV1 ovarian = test system: IGROV1 ovarian
SF-539 CNS = test system: SF-539 CNS
MDA-MB-435 = test system: MDA-MB-435
T-47D breast = test system: T-47D breast
HCT-15 colon = test system: HCT-15 colon
SF-268 CNS = test system: SF-268 CNS
HOP-92 NSCLC = test system: HOP-92 NSCLC
RPMI-8226 leukemia = test system: RPMI-8226 leukemia
NCI-H226 lung = test system: NCI-H226 lung
SW-620 colon = test system: SW-620 colon
OVCAR-4 ovarian = test system: OVCAR-4 ovarian
RXF 393 renal = test system: RXF 393 renal
A498 renal = test system: A498 renal
COLO 205 colon = test system: COLO 205 colon
LOX IMVI melanoma = test system: LOX IMVI melanoma
SNB-75 CNS = test system: SNB-75 CNS
HT29 colon = test system: HT29 colon

CC(C)c1cc(CNc2nc(Nc3cc(C4CC4)[nH]n3)cc(N3CCN(C)CC3)n2)on1
GI50 (U251 CNS): 3.49 µM and 0.408 µM
TGI (U251 CNS): > 10 µM and 10.3 µM
TGI (UACC-62 melanoma): > 10 µM and 2.35 µM
GI50 (OVCAR-8 ovarian): 3.27 µM and 0.42 µM
TGI (OVCAR-8 ovarian): > 10 µM and 14.8 µM
GI50 (NCI-H522 lung): 0.422 µM and 0.992 µM
TGI (NCI-H522 lung): 4.3 µM and 3.83 µM
TGI (UACC-257 melanoma): > 10 µM and 5.53 µM
TGI (MCF7 breast): > 10 µM and 13.1 µM
TGI (KM12 colon): > 10 µM and 10.7 µM
GI50 (SK-OV-3 ovarian): 0.904 µM and 0.335 µM
TGI (SK-OV-3 ovarian): 4.45 µM and 5.4 µM
TGI (SN12C renal): > 10 µM and 15.1 µM
GI50 (HCC-2998 colon): 2.79 µM and 0.343 µM
TGI (HCC-2998 colon): > 10 µM and 6.39 µM
GI50 (SK-MEL-2 melanoma): 1.69 µM and 0.646 µM
TGI (SK-MEL-2 melanoma): > 10 µM and 2.29 µM
GI50 (SK-MEL-5 melanoma): > 10 µM and 1.32 µM
TGI (SK-MEL-5 melanoma): > 10 µM and 4.72 µM
TGI (NCI-H460 lung): > 10 µM and 1.42 µM
TGI (A549 NSCLC): > 10 µM and 11.8 µM
GI50 (786-0 renal): 1.43 µM and 0.223 µM
TGI (786-0 renal): > 10 µM and 3.72 µM
TGI (OVCAR-5 ovarian): > 10 µM and 3.91 µM
TGI (ACHN renal): > 10 µM and 6.66 µM
GI50 (HL-60(TB) leukemia): 0.359 µM and 0.087 µM
TGI (HL-60(TB) leukemia): > 10 µM and 1.6 µM
GI50 (SR leukemia): 0.0422 µM and < 0.0198 µM
TGI (SR leukemia): 3.42 µM and 1.47 µM
GI50 (NCI-H23 lung): 1.54 µM and 0.173 µM
TGI (NCI-H23 lung): > 10 µM and 3.37 µM
GI50 (DU-145 prostate): 1.57 µM and 0.205 µM
GI50 (EKVX NSCLC): 0.587 µM
TGI (EKVX NSCLC): > 10 µM
TGI (HCT-116 colon): > 10 µM and 44.6 µM
GI50 (TK-10 renal): 0.53 µM and 0.277 µM
TGI (TK-10 renal): 4.19 µM and 5.52 µM
GI50 (SNB-19 CNS): 4.59 µM and 0.471 µM
TGI (SNB-19 CNS): > 10 µM and 23.3 µM
TGI (K-562 leukemia): > 10 µM and 14.5 µM
TGI (SF-295 CNS): > 10 µM and 2.77 µM
TGI (M14 melanoma): > 10 µM and 2.51 µM
TGI (BT-549 breast): > 10 µM and 1.4 µM
GI50 (NCI/ADR-RES ovarian): > 10 µM and 6.84 µM
TGI (NCI/ADR-RES ovarian): > 10 µM and 25.4 µM
GI50 (CCRF-CEM leukemia): 4.62 µM and 1.02 µM
TGI (CCRF-CEM leukemia): > 100 µM
TGI (SK-MEL-28 melanoma): > 10 µM and 4.59 µM
GI50 (CAKI-1 renal): 1.88 µM and 1.12 µM
TGI (CAKI-1 renal): > 10 µM and 4.09 µM
GI50 (MOLT-4 leukemia): 2.71 µM and 0.477 µM
TGI (MOLT-4 leukemia): > 10 µM and 8.44 µM
GI50 (MALME-3M melanoma): 1.61 µM and 0.276 µM
TGI (MALME-3M melanoma): > 10 µM and 2.96 µM
GI50 (OVCAR-3 ovarian): 2.14 µM and 0.256 µM
TGI (OVCAR-3 ovarian): > 10 µM and 4.1 µM
TGI (PC-3 prostate): > 10 µM and 7.02 µM
GI50 (MDA-MB-231 breast): 1.29 µM and 0.151 µM
TGI (MDA-MB-231 breast): > 10 µM and 5.42 µM
GI50 (UO-31 renal): 2 µM and 0.688 µM
TGI (UO-31 renal): > 10 µM and 5.9 µM
GI50 (IGROV1 ovarian): 0.462 µM and 0.175 µM
TGI (IGROV1 ovarian): 4.94 µM and 7.13 µM
TGI (SF-539 CNS): > 10 µM and 1.02 µM
TGI (MDA-MB-435): > 10 µM and 5.54 µM
TGI (T-47D breast): > 10 µM and 9.84 µM
TGI (HCT-15 colon): > 10 µM and 8.47 µM
GI50 (SF-268 CNS): 1.7 µM and 0.277 µM
TGI (SF-268 CNS): > 10 µM and 2.25 µM
GI50 (HOP-92 NSCLC): 0.16 µM and 0.0273 µM
TGI (HOP-92 NSCLC): 0.821 µM and 0.182 µM
GI50 (RPMI-8226 leukemia): 8.33 µM and 1.7 µM
TGI (RPMI-8226 leukemia): > 10 µM and 5.76 µM
GI50 (NCI-H226 lung): 0.363 µM and 0.0576 µM
TGI (NCI-H226 lung): 4.18 µM and 3.6 µM
TGI (SW-620 colon): > 10 µM and 10.8 µM
GI50 (OVCAR-4 ovarian): 2.14 µM and 0.731 µM
TGI (OVCAR-4 ovarian): > 10 µM and 4.57 µM

COc1ccc(Nc2nc(N)c(C(=O)c3ccc(OC)cc3)s2)cc1
TGI (U251 CNS): 17.2 µM
TGI (UACC-62 melanoma): > 100 µM
TGI (OVCAR-8 ovarian): > 74.5 µM
TGI (NCI-H522 lung): 0.455 µM
TGI (UACC-257 melanoma): > 100 µM
TGI (MCF7 breast): > 100 µM
TGI (SK-OV-3 ovarian): 28.7 µM
TGI (SN12C renal): > 64.5 µM
TGI (HCC-2998 colon): > 29.7 µM
TGI (SK-MEL-2 melanoma): > 55.4 µM
TGI (SK-MEL-5 melanoma): > 100 µM
TGI (NCI-H460 lung): > 54.8 µM
TGI (RXF 393 renal): 4.55 µM
TGI (A549 NSCLC): > 44.5 µM
TGI (786-0 renal): > 41.9 µM
TGI (OVCAR-5 ovarian): > 100 µM
TGI (HL-60(TB) leukemia): 0.802 µM
TGI (A498 renal): > 64.7 µM
TGI (NCI-H23 lung): > 93.4 µM
TGI (COLO 205 colon): > 100 µM
TGI (DU-145 prostate): 6.94 µM
TGI (EKVX NSCLC): > 89.1 µM
TGI (HCT-116 colon): > 28.9 µM
TGI (TK-10 renal): > 60.7 µM
TGI (SNB-19 CNS): > 49.5 µM
TGI (K-562 leukemia): > 35.8 µM
TGI (SF-295 CNS): 40.6 µM
TGI (LOX IMVI melanoma): > 100 µM
TGI (NCI/ADR-RES ovarian): > 100 µM
TGI (SK-MEL-28 melanoma): > 68.6 µM
TGI (CAKI-1 renal): > 48.6 µM
TGI (OVCAR-3 ovarian): 2.1 µM
TGI (SNB-75 CNS): 6.26 µM
TGI (PC-3 prostate): 22.1 µM
TGI (MDA-MB-231 breast): > 72.4 µM
TGI (UO-31 renal): 44.3 µM
TGI (IGROV1 ovarian): 32 µM
TGI (SF-539 CNS): 23 µM
TGI (HT29 colon): > 48.5 µM
TGI (MDA-MB-435): 0.208 µM
TGI (T-47D breast): > 100 µM
TGI (HCT-15 colon): > 100 µM
TGI (SF-268 CNS): > 100 µM
TGI (HOP-92 NSCLC): > 86.5 µM
TGI (RPMI-8226 leukemia): 0.659 µM
TGI (NCI-H226 lung): 75.8 µM
TGI (SW-620 colon): > 37.5 µM
TGI (OVCAR-4 ovarian): > 100 µM
